# Experimental data: US6656690B2, “Mass spectrometric methods for biomolecular screening” (priority 1998, dated 2003)
# Entries after “also recorded” stand apart in the source; their conditions may differ.
# Legend:
# 16S A site 27mer RNA = test: ESI-FTICR mass spectrometric (MASS) binding assay, 16S A-site 27-mer RNA model; parameters: species or system prokaryotic; conditions: for complexes observed with 16S (in words): aminoglycosides 500 nM each, mixture with untagged 16S and tagged 18S
# Protocol: (§1) The ESI-FTICR mass spectrum depicted in FIG. 26 was acquired from a […] mixture of untagged 16S and tagged 18S in the presence of an equimolar mixture of five aminoglycosides. It is to be understood that other biomolecules may be used in place of the aminoglycosides. The aminoglycosides have been selected from two classes of 2-deoxystreptamines: 4,5-disubstituted (paromomycin, and lividomycin), and 4,6-disubstituted (tobramycin, sisomicin, and bekanamycin), present at 500 nM each. Complexes corresponding to 1:1 binding of individual aminoglycosides were observed between 16S and all members of the aminoglycoside mixture, with the apparent affinities estimated from the abundances of the respective complexes differing substantially. Signal intensities from the complexes with paromomycin (m/z 1925.572) and lividomycin (m/z 1954.790) are consistent with MS-measured dissociation constants of 110 nM and 28 nM, respectively. The intensities of 16S complexes with tobramycin (m/z 1895.960), bekanamycin (m/z 1899.171), and sisomicin (m/z 1891.972) were reduced, consistent with solution dissociation constants of […]. Wang, et al., Biochemistry, 1997, 36, 768-779. […] The spectrum is calibrated using multiple isotope peaks of the (M-5H^+)^5− and (M-4H^+)^4− charge states of the free RNA as internal mass standards which brackets the m/z range in which complexes are observed. The average mass measurement error obtained for the complexes in FIG. 26 is 2.1 ppm when m/z differences are measured between the most abundant (4 ^13C) isotope peak of 16S and each complex. This post calibration scheme is easily automated which enables rapid, high precision mass measurements of affinity selected ligands against multiple targets in a high throughput mode.
# A preferred first step of MASS screening involves mixing the RNA target (or targets) with a combinatorial library of ligands designed to bind to a specific site on the target molecule(s). Specific noncovalent complexes formed in solution between the target(s) and any library members are transferred into the gas phase and ionized by ESI. As described herein, from the measured mass difference between the complex and the free target, the identity of the binding ligand can be determined. The dissociation constant of the complex can be determined in two ways: if a ligand with a known binding affinity for the target is available, a relative Kd can be measured by using the known ligand as an internal control and measuring the abundance of the unknown complex to the abundance of the control, alternatively, if no internal control is available, Kd's can be determined by making a series of measurements at different ligand concentrations and deriving a Kd value from the “titration” curve.
# Electrospray ionization Fourier transform ion cyclotron resonance mass spectrometry was performed on a solution containing […] 16S RNA (the 27-mer construct shown in FIG. 24) and 500 nM paromomycin is depicted in FIG. 13. A 1:1 complex was observed between the paromomycin and the RNA consistent with specific aminoglycoside binding at the A-site. The insets show the measured and calculated isotope envelopes of the (M-5H+)5− species of the free RNA and the RNA-paromomycin complex. High precision mass measurements were acquired using isotope peaks of the (M-5H+)^5− and (M-4H^+)^4− charge states of the free RNA as internal mass standards and measuring the m/z difference between the free and bound RNA.
# ESI-MS measurements of a solution containing a fixed concentration of RNA at different concentrations of ligand were obtained. By measuring the ratio of bound:unbound RNA at varying ligand concentrations, the Kd was determined by 1/slope of the “titration curve”. The MS derived value of 110 nM is in good agreement with previously reported literature value of 200 nM. […]
# 18S A site model = test: ESI-FTICR mass spectrometric (MASS) binding assay, mass-tagged 18S A-site 27-mer RNA model; parameters: species or system eukaryotic; conditions: aminoglycosides 500 nM each, mixture with untagged 16S and tagged 18S
# Protocol: as §1, with “The” for “The spectrum is calibrated using multiple isotope peaks of the (M-5H^+)^5− and (M-4H^+)^4− charge states of the free RNA as internal mass standards which brackets the m/z range in which complexes are observed. The”, “This post calibration scheme is easily automated which enables rapid, high precision mass measurements of affinity selected ligands against multiple targets in a high throughput mode.” left out
Structure (SMILES),complexes observed with 16S (in words) (16S A site 27mer RNA),complexes observed with 16S (in words) (16S A site 27mer RNA; listed as bekamycin),complexes observed with 18S (in words) (18S A site model),"Kd (16S A site 27mer RNA; ESI-FTICR MS, 16S A site 27mer, read-out: MS-measured dissociation constant (KD))",enhancement of binding affinity for 16S relative to paromomycin (16S A site 27mer RNA; lividomycin vs paromomycin),complexes observed with 16S (in words) (16S A site 27mer RNA; listed as sisomycin)
NC[C@H]1O[C@H](O[C@H]2[C@H](O)[C@@H](O[C@H]3O[C@H](CO)[C@@H](O)[C@H](N)[C@H]3O)[C@H](N)C[C@@H]2N)[C@H](N)[C@@H](O)[C@@H]1O [bekanamycin],reduced,Weaker complexes,–,–,–,–
NC[C@@H]1O[C@H](O[C@H]2[C@@H](O)[C@H](O[C@@H]3[C@@H](O)[C@H](N)C[C@H](N)[C@H]3O[C@H]3O[C@H](CO)[C@@H](O)C[C@H]3N)O[C@@H]2CO)[C@H](N)[C@@H](O)[C@@H]1O[C@H]1O[C@H](CO)[C@@H](O)[C@H](O)[C@@H]1O [lividomycin],High affinity complexes,–,complete absence of complexes,28 nM,~4 fold,–
CN[C@@H]1[C@@H](O)[C@@H](O[C@@H]2[C@@H](O)[C@H](O[C@H]3OC(CN)=CC[C@H]3N)[C@@H](N)C[C@H]2N)OC[C@]1(C)O [sisomicin],reduced,–,–,–,–,Weaker complexes
NC[C@H]1O[C@H](O[C@H]2[C@H](O)[C@@H](O[C@H]3O[C@H](CO)[C@@H](O)[C@H](N)[C@H]3O)[C@H](N)C[C@@H]2N)[C@H](N)C[C@@H]1O [tobramycin],reduced; also recorded: Weaker complexes,–,–,–,–,–
